Experimental data published in patent publication US10285382B2 (priority 2017, dated 2019).
Several values for one entry are separate records, joined by “and”; a condition that tells them apart may be missing. Identical values can stand only once. Like-named read-outs stand apart in the source and are kept apart here.

How the values were obtained:
chicks = test system: chicks
Text: The chicks hatched according to the methods of Examples 2 and 3 are shipped to a broiler facility and raised to maturity. No additional changes to grow-out methods are made. A total of about 4 million eggs are set per month and the saleable chicks are sent to the grow-out facility. […] The wholesale price of a broiler is currently estimated at $0.85 per pound. […] See the http:///.nationalchickencouncil.org available on the web.

Influenza A (H1N1) = test system: Influenza A (H1N1)
Experimental: Glass slides (1″×3″) are ethanol-sanitized and autoclaved prior to testing. The slides (carriers) are placed into sterile plastic petri dishes until use. Aliquots (0.010 ml) of diluted stock Influenza A (H1N1) are aseptically spread over a 1″×1″ square area of the carrier slide to prepare a virus film.
Virus Control carriers are placed into an adjacent modular room with the lids removed. One additional glass slide (with no virus film) is also placed into each testing chamber to perform cytotoxicity and neutralization validation controls. Upon closure of the respective study contact times (T=60 min and T=120 min), duplicate carriers are removed from each testing chamber. Duplicate carriers are also removed from the control modular room at each time point. Duplicate time zero carriers are harvested and enumerated promptly by eluting the films with 2 ml of Influenza Infection Medium. Serial dilutions (1:10) are performed and dilutions 10^−1 to 10^−5 are plated in quadruplicate onto Madin-Darby Canine Kidney (MDCK) cell monolayers prepared to suitable confluency. Cell culture assay trays are incubated at 35° C. on an orbital rotator (60 rotations/minute) for 60 minutes to facilitate viral-host adsorption. Trays are removed from incubation, and Influenza infection Media is pipetted into each well (˜1.0 ml). The trays are incubated for 7 days. The assay trays are observed regularly for the presence of cytotoxicity, viral cytopathic effects, and contamination. At the end of 7 days, plates are scored and the Spearman-Karber Method is used to compute viral titers and levels of cytotoxicity.

Aspergillus fumigatus = test system: Aspergillus fumigatus
Text: (§1) Hatcheries and chick production facilities are subject to heavy bacterial loads that are difficult to control. In addition to the animals themselves, there is a significant contamination of the facilities from the outside.

Other blue green = test system: Other blue green
Text: as §1

Total bacteria = test system: Total bacteria
Text: as §1

[1] = test system: flies and other unwanted insects
Text: In addition to the incoming eggs, the egg room includes excess shipping boxes and pallets.

Salmonella = details: hatchery environment (egg room and incubators); after 28 days
[2] = test system: S. aureus ATCC 33592 (MRSA)
E. coli K12 = details: for % Reduction vs. Control / Log10 reduction / Log10 reduction vs. Control / Percent reduction: DHP (+)
[3] = test system: MS2 Bacteriophage ATCC 15597-B1; details: DHP (+); 1 hour
bacteria growing on TSA = details: for number of bacteria growing on TSA: test room, DHP about 0.1 ppm, FIGS. 13A-B
[4] = test system: Gram-negative enteric bacilli; details: egg cooler conditions
salmonellae = details: egg cooler conditions; during the trial
bacteria = details: end of test period (0, 7, and 30 days), three locations; from about 70 total; FIGS. 9A-C
Experimental: In addition, bacterial contamination in the egg room is assessed by placing blood agar plates at three locations in the room (East, North, and West) at 0, 7, and 30 days, and bacterial growth is assessed after 24 hours.

[5] = Hood Chamber, 60 minutes contact
[6] = Hood Chamber, 120 minutes contact
[7] = Modular Room, 60 minutes contact, DHP 0.6 to 1.0 ppm
[8] = Modular Room, 120 minutes contact, DHP 0.6 to 1.0 ppm
[9] = 6 Hours contact, Hood (Treated)
[10] = 6 Hours contact, Room (Treated)
[11] = 24 Hours contact, Hood (Treated)
[12] = 24 Hours contact, Room (Treated)
[13] = 48 Hours contact, Hood (Treated)
[14] = 48 Hours contact, Room (Treated)

OO [DHP, dry hydrogen peroxide]
Mortality Rate (chicks; After DHP treatment, grow-out facility): 2.2%
Net increase (# Broilers) (chicks; After DHP treatment, per month): 308,678
reduction of mortality (chicks; at the grow-out facility): about 7.8%
increase in overall production (chicks; per month): over 300,000 broilers
% Reduction (Influenza A (H1N1); [5]): 99.8%
Log10 reduction (Influenza A (H1N1); [5]): >=2.62
% Reduction (Influenza A (H1N1); [6]): 98.6%
Log10 reduction (Influenza A (H1N1); [6]): >=1.87
% Reduction (Influenza A (H1N1); [7]): 87%
Log10 reduction (Influenza A (H1N1); [7]): 0.87
% Reduction (Influenza A (H1N1); [8]): 76%
Log10 reduction (Influenza A (H1N1); [8]): 0.62
Kill (Aspergillus fumigatus): 49999
Reduction (Aspergillus fumigatus): 99.99%
Post (Aspergillus fumigatus; hatchery after DHP): 1
Kill (Other blue green): 49983
Reduction (Other blue green): 99.89%
Post (Other blue green; hatchery after DHP): 56
reduction of bacterial loads in hatcheries (Total bacteria; DHP treatment): over 90%
Kill (Total bacteria; Total (sum of all categories)): 650019
Post (Total bacteria; Total (sum of all categories)): 50167
Kill (Total bacteria; Total bacteria): 550037
Reduction (Total bacteria; Total bacteria): 91.65%
Post (Total bacteria; Total bacteria, hatchery after DHP): 50110
Percent Saleable Chicks (hatching eggs; After DHP treatment): 80.82%
Saleable Chick (average) (hatching eggs; After DHP treatment, 4,000,000 eggs set per month): 3,318,400
Net increase (# Chicks) (hatching eggs; After DHP treatment, from each 4,000,000 eggs set): 62,000
After Modification Cull Rate (%) (hatching eggs; August 2016): 1.58%
After Modification First Quality Chick (% Hatched) (hatching eggs; August 2016): 79.90%
After Modification Cull Rate (%) (hatching eggs; Average June-November 2016): 1.65%
After Modification First Quality Chick (% Hatched) (hatching eggs; Average June-November 2016): 80.82%
cull rate lower than the cull rate before DHP modification (hatching eggs; DHP modified egg room): at least 1%
After Modification Cull Rate (%) (hatching eggs; July 2016): 1.88%
After Modification First Quality Chick (% Hatched) (hatching eggs; July 2016): 79.78%
After Modification Cull Rate (%) (hatching eggs; June 2016): 2.09%
After Modification First Quality Chick (% Hatched) (hatching eggs; June 2016): 78.62%
After Modification Cull Rate (%) (hatching eggs; November 2016): 1.41%
After Modification First Quality Chick (% Hatched) (hatching eggs; November 2016): 82.96%
After Modification Cull Rate (%) (hatching eggs; October 2016): 1.32%
After Modification First Quality Chick (% Hatched) (hatching eggs; October 2016): 82.55%
After Modification Cull Rate (%) (hatching eggs; September 2016): 1.63%
After Modification First Quality Chick (% Hatched) (hatching eggs; September 2016): 81.09%
percent hatching of first quality chicks (hatching eggs; after installation of DHP to the setter incubator environment (room about 0.5 ppm), FIG. 6): 83%
cull rate (hatching eggs; eggs incubated under DHP conditions, FIG. 7): continues to drop
additional birds available for shipping to the grow-out facility (hatching eggs; installation of DHP in the egg room): about 4,000 birds
elimination of flies and other unwanted insects ([1]; egg room, DHP between 0.1 ppm and 0.2 ppm): sufficient to eliminate
elimination of flies and other unwanted insects, both flying and non-flying ([1]; incorporation of DHP into the egg room): eliminates
flying insects in the facility ([1]; within the first couple days of applying DHP to the poultry space): virtually eliminated
reduction of Salmonella on the egg surface (Salmonella): 83.3%
% Reduction compared to Control [2, 9]: 95.150%
Average CFU/Carrier [2, 9]: 2.51E+05 CFU/Carrier
Log Reduction compared to Control [2, 9]: 1.31
Replicate CFU/Carrier [2, 9]: 1.62E+05 CFU/Carrier and 3.40E+05 CFU/Carrier
% Reduction compared to Control [2, 10]: 83.053%
Average CFU/Carrier [2, 10]: 8.77E+05 CFU/Carrier
Log Reduction compared to Control [2, 10]: 0.77
Replicate CFU/Carrier [2, 10]: 2.54E+05 CFU/Carrier and 1.50E+06 CFU/Carrier
% Reduction compared to Control [2, 11]: >66.667%
Average CFU/Carrier [2, 11]: <1.50E+01 CFU/Carrier
Log Reduction compared to Control [2, 11]: >0.48
Replicate CFU/Carrier [2, 11]: 2.50E+01 CFU/Carrier and <5.00E+00 CFU/Carrier
% Reduction compared to Control [2, 12]: >88.889%
Average CFU/Carrier [2, 12]: <5.00E+00 CFU/Carrier
Log Reduction compared to Control [2, 12]: >0.95
Replicate CFU/Carrier [2, 12]: 5.00E+00 CFU/Carrier and <5.00E+00 CFU/Carrier
% Reduction compared to Control [2, 13]: >78.947%
Average CFU/Carrier [2, 13]: <1.00E+01 CFU/Carrier
Log Reduction compared to Control [2, 13]: >0.68
% Reduction compared to Control [2, 14]: >89.474%
Average CFU/Carrier [2, 14]: <5.00E+00 CFU/Carrier
Log Reduction compared to Control [2, 14]: >0.98
Replicate CFU/Carrier [2, 14]: <5.00E+00 CFU/Carrier
% Reduction vs. Control (E. coli K12; 1 hour): 99.8%
Log10 reduction (E. coli K12; 1 hour): >4.78
Log10 reduction vs. Control (E. coli K12; 1 hour): 2.82
Percent reduction (E. coli K12; 1 hour): >99.9984%
% Reduction vs. Control (E. coli K12; 2 hours): 98.1%
Log10 reduction (E. coli K12; 2 hours): >4.79
Log10 reduction vs. Control (E. coli K12; 2 hours): 1.71
Percent reduction (E. coli K12; 2 hours): >99.9984%
aerosolized bacteria in the DHP treated space (E. coli K12; within one hour): essentially eliminated
% Reduction vs. Control [3]: 99.8%
Log10 reduction [3]: 3.54
Log10 reduction vs. Control [3]: 2.70
Percent reduction [3]: 99.97%
TSA growth (bacteria growing on TSA; egg cooler conditions, treatment, 0 to 120 hours): static until 120 hours
number of bacteria growing on TSA (bacteria growing on TSA; after 72 hours (P=0.05)): significantly reduced
number of bacteria growing on TSA (bacteria growing on TSA; after 120 hours (P=0.05)): significantly reduced
growth on Mac at 72 hours compared to 0 hours ([4]; treated group, FIG. 14): significantly less growth
Mac growth ([4]; treatment, 0 to 120 hours): low throughout
growth of Salmonella on the XLT-4 (salmonellae): No growth
number of bacterial colonies on the blood agar plates, total (bacteria): about 30
